The values below come from ChEMBL document CHEMBL1201862, “PubChem BioAssay data set” (2004).

Assay in all cases: NCI anticancer screen, dose series, 48 h
Test [1] deals with CAKI-1.
Test [2] has as its system EKVX.
Test [3] relates to COLO 205.
Test [4] relates to SK-OV-3.
Test [5] has as its system HOP-62.
For test [6], the system named is MCF7.
For test [7], the system named is MDA-MB-231.
For test [8], the system named is A549.
In test [9] the test system is SN12C.
Test [10] concerns HCC 2998.
The subject of test [11] is UACC-62.
In test [12] the test system is SK-MEL-28.
In test [13] the test system is PC-3.
In test [14] the test system is SNB-19.
For test [15], the system named is NCI-H23.
Test [16] concerns NCI/ADR-RES.
The subject of test [17] is LOX IMVI.
For test [18], the system named is KM12.
For test [19], the system named is CCRF-CEM.
Test [20] has as its system SR.

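In this assay, cells in 96-well plates receive the compound at five concentrations for 48 hours. Endpoints are linearly interpolated between the surrounding concentrations. At the GI50, growth is halved.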 The source made the active and inactive calls. Rule as the data show it: active = GI50 up to about 1.1 µM and inactive = higher.

Take `C=CCCCC1(C)CCNC1=S` (stereo unspecified): the GI50 in [1], in [2], in test [3], in test [4], in test [5] and in test [6] was > 100 µM (inactive) throughout. For the same compound, the GI50 in test [7], in test [8], in test [9], in [10], in test [11] and in test [12] was > 100 µM (inactive) in each case. The GI50 in test [13], in test [14] and in test [15] was > 100 µM (inactive) each time.
For the compound `CC1=CC(=O)/C(=C/NC(=S)Nc2ccc(S(N)(=O)=O)cc2)C(=O)O1`, the GI50 in test [1], in [2], in [3], in test [4], in test [5] and in [6] was > 100 µM (inactive) throughout. Moreover, the GI50 in test [7], in [8], in test [9], in test [16], in [10] and in test [11] was > 100 µM (inactive) each time. The GI50 in test [12], in test [17], in test [14], in test [15] and in test [18] was > 100 µM (inactive) each time.
Take `CC[N+]1(C)CCC(O)(/C=C/c2ccc(OC)cc2)C(C(=O)/C=C/c2ccc(OC)cc2)C1` (stereo unspecified): the GI50 in test [1] was 1.88 µM (inactive); in [2] it was 28.6 µM (inactive); in [3] it was 2.58 µM (inactive); in [4] it was 19.1 µM (inactive); in test [5], 19.3 µM (inactive); in [6], 4.29 µM (inactive). Besides, the GI50 in test [7] is 23.9 µM (inactive); in test [8], 23.3 µM (inactive); in test [9] it was 21.3 µM (inactive); in test [16] it was 27.1 µM (inactive); in test [10], 20 µM (inactive); in [11] it was 17.8 µM (inactive). Moreover, the GI50 in test [12] is 15.3 µM (inactive); in test [17], 2.64 µM (inactive); in [13], 20.1 µM (inactive); in test [14] it was 17.3 µM (inactive); in test [19] it was 0.548 µM (active); in test [15] it was 16.2 µM (inactive). In [18], the GI50 is 4.13 µM (inactive).
For `CC(O)CNC(=O)Nc1c(C(F)(F)F)cc(-c2ccccc2)[nH]c1=O` (stereo unspecified), the GI50 in [1], in test [2], in test [3], in test [4], in [5] and in [6] was > 100 µM (inactive) throughout. In addition, the GI50 in [7], in test [8], in test [9], in test [16], in test [10] and in [11] was > 100 µM (inactive) each time. Besides, the GI50 in test [12] is > 100 µM (inactive); in test [17], > 100 µM (inactive); in test [13], > 100 µM (inactive); in test [14] it was > 100 µM (inactive); in test [19] it was 13.8 µM (inactive); in test [15], > 100 µM (inactive). In addition, in [18], the GI50 was > 100 µM (inactive).
Regarding `C[C@H]1S[C@H](c2c(F)cccc2F)n2c1nc1ccccc12`, the GI50 in test [1] was 74 µM (inactive); in test [2], 66.2 µM (inactive); in [3], 37 µM (inactive); in [4], 38.4 µM (inactive); in [5], > 100 µM (inactive); in test [6], 33.8 µM (inactive). The GI50 in test [7] is 68.7 µM (inactive); in test [8], 47.1 µM (inactive); in test [9], 74.1 µM (inactive); in test [16], 44.2 µM (inactive); in test [10] it was 64.7 µM (inactive); in test [11], 63.1 µM (inactive). Further, the GI50 in [12] is 71.3 µM (inactive); in test [13] it was 33.7 µM (inactive); in [14] it was > 100 µM (inactive); in test [19] it was 40.5 µM (inactive); in test [15], 34.8 µM (inactive); in [18], 86.5 µM (inactive).
For `N#Cc1c(N2CCOCC2)ncn(-c2ccccc2)c1=O`, the GI50 in test [1], in test [2], in test [3], in test [4], in [5] and in [6] was > 100 µM (inactive) in each case. The GI50 in test [8], in test [9], in test [16], in [10], in test [11] and in test [12] was > 100 µM (inactive) each time. The GI50 in test [17], in test [13], in test [20], in test [14], in test [19] and in test [15] was > 100 µM (inactive) each time. For the same compound, the GI50 in [18] was > 100 µM (inactive).
For the compound `CC1(C)CC(=O)c2c(nc3ccc4ccccc4c3c2-c2ccc(NC(=O)CCC(=O)Nc3ccc(-c4c5c(nc6ccc7ccccc7c46)CC(C)(C)CC5=O)cc3)cc2)C1`, the GI50 in [1], in test [2], in [3], in test [4], in test [5] and in test [6] was > 100 µM (inactive) in each case. The GI50 in test [7], in test [8], in test [9], in test [16], in test [12] and in [17] was > 100 µM (inactive) in each case. In addition, the GI50 in [13], in test [20], in test [14], in test [19] and in [18] was > 100 µM (inactive) in each case.
In the case of `NN/C(=N\S(=O)(=O)c1cc(S(=O)(=O)c2ccccc2)cs1)Nc1ccc(Cl)cc1`, the GI50 was 34.1 µM (inactive) in test [1]; 13.6 µM (inactive) in [2]; 19.4 µM (inactive) in [3]; 43.7 µM (inactive) in test [4]; 38.4 µM (inactive) in [5]; 32.4 µM (inactive) in test [6]. Moreover, the GI50 was 27.4 µM (inactive) in test [7]; 27.2 µM (inactive) in test [8]; 28.4 µM (inactive) in test [9]; 29.6 µM (inactive) in test [16]; 17.5 µM (inactive) in test [11]; 35.2 µM (inactive) in test [12]. For the same compound, the GI50 in test [17] was 21.2 µM (inactive); in test [13], 23.3 µM (inactive); in test [20], 9.71 µM (inactive); in test [14] it was 42.1 µM (inactive); in test [19] it was 13.5 µM (inactive); in test [15], 23.8 µM (inactive). Also, in test [18], the GI50 is 26.1 µM (inactive).
On to `c1ccc([P+](c2ccccc2)(c2ccccc2)C2c3ccccc3-c3ccccc32)cc1`, for which the GI50 in test [1] was 3.46 µM (inactive); in test [3] it was 1.33 µM (inactive); in test [4], 1.33 µM (inactive); in [5], 1.5 µM (inactive); in [6], 2.25 µM (inactive); in test [7] it was 2.52 µM (inactive). Also, the GI50 in test [8] is 2.88 µM (inactive); in test [9], 2.36 µM (inactive); in test [16], 15.3 µM (inactive); in test [10] it was 2.6 µM (inactive); in test [11], 1.26 µM (inactive); in test [12], 3.01 µM (inactive). The GI50 in test [17] is 1.32 µM (inactive); in test [13], 1.47 µM (inactive); in test [14] it was 2.79 µM (inactive); in test [19] it was 1.89 µM (inactive); in test [15] it was 1.9 µM (inactive).
For `C[C@@H](CC(O)C(O)C(C)(C)O)C1CCC23CC12CCC1[C@@]2(C)CCC(O)C(C)(C)C2CC(OC2OC(CO)C(O)C(O)C2O)[C@]13C` (stereo partly specified), the GI50 in [1], in [2], in test [3], in test [4], in test [5] and in test [6] was > 10 µM (inactive) each time. The GI50 in test [7], in [8], in test [9], in [16], in test [10] and in test [11] was > 10 µM (inactive) each time. In addition, the GI50 in [12], in test [17], in test [13], in test [14], in test [19] and in test [15] was > 10 µM (inactive) in each case. In test [18], the GI50 is > 10 µM (inactive).
As for `O=C1CCCCC/C1=C\c1ccccc1`, the GI50 in test [1], in test [2], in [3], in test [4], in test [5] and in test [7] was > 100 µM (inactive) throughout. Also, the GI50 in [8] was > 100 µM (inactive); in test [9] it was > 100 µM (inactive); in test [10], > 100 µM (inactive); in [11], 63.4 µM (inactive); in test [12], > 100 µM (inactive); in test [17], > 100 µM (inactive). The GI50 in [13], in [20], in test [14], in test [15] and in [18] was > 100 µM (inactive) in each case.
